Usually Kd stands for the concentration at which binding is half-saturated. What is called IC50 is the concentration at which inhibition is half-maximal. High values mean a need for much substance, low ones inhibition by little substance.

The target in one assay is ERK protein (Mus musculus, UniProt P63085). Kind of assay: TdF (Temperature Dependence Fluorescence, thermal shift) assay for ERK. The assay is classed as binding. As to conditions: Table 2; 3 μM ERK protein. The text has this: The SAR (Structure Activity Relationship) for ERK ligands covered by this invention was interrogated using the TdF (Temperature Dependence Fluorescence) assay or best known as thermal shift assay. (M. W. Pantoliano, et al., “High-density miniaturized thermal shift assays as a general strategy for drug discovery,” J. Biomol. Screen 6 (2001) 429-440) The TdF assay was mainly conducted in the 96-well based CHROMO-4 real time fluorescence plate reader (BioRad). The Sypro Orange (Sigma-Aldrich), environmentally sensitive fluorescence dye, was used to monitor the protein folding-unfolding transition. Protein-ligand binding was gauged by the change (or shift) in the unfolding transition temperature (ΔTm) acquired at protein alone with respect to protein in the presence of ligand of interest.
Compound of interest was first prepared in DMSO stock (typical concentration: 10 mM). […] Final percentage of DMSO resided in the sample was 2%. The sample plate was heated from 30° C. to 90° C. with thermal ramping rate of 1° C./min. The fluorescence signals were acquired with excitation and emission wavelengths centered at 490 and 560 nm respectively. The instrument thermal stability was ±0.2° C. The melting temperatures (Tm) for ERK protein under aforementioned conditions occurred at […] and 64.8±0.2° C. respectively.
The derivation of TdF-based ligand binding affinity constant (Kd) followed closely those previously formulated by Brandts and Lin. (J. F. Brandts, L.-N. Lin, “Study of strong to ultratight protein interactions using differential scanning calorimetry,” Biochemistry 29 (1990) 6927-6940). In brief, the binding constant of the ligand at the Tm is expressed as below:
[formula] where T0 is the midpoint of unfolding for unliganded protein and Tm is the midpoint of unfolding in presence of ligand. [LTm] is free ligand at Tm. The ΔHu and ΔCpu are the enthalpy of unfolding and heat capacity change of unfolding for the protein respectively. Following algorithm derived by Winsor and coworker, the T0, ΔHu and ΔCpu can be determined separately from nonlinear regression fitting the protein alone melting curve:
[formula] where F(T) is the observed fluorescence intensity at any temperature T, Yn, and Yu are the predicted fluorescence intensities for fully folded and unfolded protein, respectively; mn and mu are slope correction for changes in Yn and Yu with respect to changes in temperature (analogously replace T0 with Tm in the above equation for liganded protein to yield Tm). (Mayhood, T. W., Windsor, W. T., “Ligand binding affinity determined by temperature-dependent circular dichroism: Cyclin-dependent kinase 2 inhibitors,” Analytical Biochemistry 345 (2005) 187-197).
[formula] where ΔHL (T) is the van't Hoff enthalpy of ligand binding at temperature T and ΔCpL is the heat capacity upon ligand binding. For simplicity, the ΔCpL and ΔHL (T) were set to zero and -7 kcal/mol respectively. […]

For another assay, the target named is Mouse ERK2 protein (Mus musculus (Mouse), UniProt P63085). In words: Coupled MEK1/ERK2 IMAP assay or Active ERK2 IMAP assay. The assay is classed as biochemical. As to conditions: Table 2, 30 μM ATP.
Sequence of Mouse ERK2 protein (P63085 whole entry): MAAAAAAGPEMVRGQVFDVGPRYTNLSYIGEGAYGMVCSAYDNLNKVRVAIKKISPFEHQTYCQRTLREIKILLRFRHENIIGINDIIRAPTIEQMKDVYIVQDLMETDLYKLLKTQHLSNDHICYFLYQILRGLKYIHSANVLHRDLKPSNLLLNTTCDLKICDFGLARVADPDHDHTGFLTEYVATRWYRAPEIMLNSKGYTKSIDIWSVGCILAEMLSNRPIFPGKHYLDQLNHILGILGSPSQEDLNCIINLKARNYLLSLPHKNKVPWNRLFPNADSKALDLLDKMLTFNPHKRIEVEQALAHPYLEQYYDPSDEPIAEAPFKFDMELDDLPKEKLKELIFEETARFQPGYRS

Sequence of ERK protein (P63085 2-358 limits assumed): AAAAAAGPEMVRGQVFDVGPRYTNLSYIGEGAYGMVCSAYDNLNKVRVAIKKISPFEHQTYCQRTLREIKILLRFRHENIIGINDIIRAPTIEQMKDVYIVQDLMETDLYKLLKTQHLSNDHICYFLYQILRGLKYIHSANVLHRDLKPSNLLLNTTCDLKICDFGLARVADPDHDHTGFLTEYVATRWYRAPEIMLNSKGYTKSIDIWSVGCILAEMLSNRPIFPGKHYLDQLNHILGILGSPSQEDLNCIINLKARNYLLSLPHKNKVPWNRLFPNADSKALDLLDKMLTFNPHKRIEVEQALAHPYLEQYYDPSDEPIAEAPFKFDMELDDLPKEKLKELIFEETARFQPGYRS

For `Cc1ccsc1CN1CCC[C@@H](NC(=O)N2CCc3[nH]nc(-c4ccncc4)c3C2)C1` [Compound 58, 1,4,6,7-tetrahydro-N-[1-[(3-methyl-2-thienyl)methyl]-3(R)-piperidinyl]-3-(4-pyridinyl)-5H-pyrazolo[4,3-c]pyridine-5-carboxamide], the dissociation constant (Kd) on ERK protein is 0.25 nM. Moreover, at Mouse ERK2 protein, the midpoint of inhibition, the IC50, lay at 1.98 nM.

As to `Cc1ccc(CN2CCC[C@@H](NC(=O)N3CCc4[nH]nc(-c5ccncc5)c4C3)C2)s1` [Compound 59, 1,4,6,7-tetrahydro-N-[1-[(5-methyl-2-thienyl)methyl]-3(R)-piperidinyl]-3-(4-pyridinyl)-5H-pyrazolo[4,3-c]pyridine-5-carboxamide], the dissociation constant Kd on ERK protein was found to be 1.51 nM. The compound further returned an IC50 against Mouse ERK2 protein of 1.78 nM.

Regarding `Cn1cc(CN2CCC[C@@H](NC(=O)N3CCc4[nH]nc(-c5ccncc5)c4C3)C2)c2ccccc21` [Compound 60, 1,4,6,7-tetrahydro-N-[1-[(1-methyl-1H-indol-3-yl)methyl]-3(R)-piperidinyl]-3-(4-pyridinyl)-5H-pyrazolo[4,3-c]pyndine-5-carboxamide], the Kd at ERK protein is 1.12 nM. Moreover, the concentration for half-maximal inhibition (IC50) against Mouse ERK2 protein came out at 1.24 nM.

In the case of `Cn1c(CN2CCC[C@@H](NC(=O)N3CCc4[nH]nc(-c5ccncc5)c4C3)C2)cc2ccccc21` [Compound 61, 1,4,6,7-tetrahydro-N-[1-[(1-methyl-1H-indol-2-yl)methyl]-3(R)-piperidinyl]-3-(4-pyridinyl)-5H-pyrazolo[4,3-c]pyridine-5-carboxamide], the Kd at ERK protein worked out at 0.47 nM. Besides, inhibition at Mouse ERK2 protein was half-maximal at 0.3 nM (IC50).

On to `CC(=O)n1cc(CN2CCC[C@@H](NC(=O)N3CCc4[nH]nc(-c5ccncc5)c4C3)C2)c2ccccc21` [Compound 62, N-[1-[(1-acetyl-1H-indol-3-yl)methyl]-3(R)-piperidinyl]-1,4,6,7-tetrahydro-3-(4-pyridinyl)-5H-pyrazolo[4,3-c]pyridine-5-carboxamide], for which the Kd at ERK protein worked out at 2.1 nM. On Mouse ERK2 protein, the IC50 is 2.01 nM.

`O=C(N[C@@H]1CCCN(Cc2ccccc2Cl)C1)N1CCc2[nH]nc(-c3ccncc3)c2C1` [Compound 69, N-[1-[(2-chlorophenyl)-methyl]-3(R)-piperidinyl]-1,4,6,7-tetrahydro-3-(4-pyridinyl)-5H-pyrazolo[4,3-c]pyridine-5-carboxamide]: the Kd on ERK protein is 0.31 nM. The IC50 on Mouse ERK2 protein came to 2.4 nM.

Take `Cc1cccc(C)c1CN1CCC[C@@H](NC(=O)N2CCc3[nH]nc(-c4ccncc4)c3C2)C1` [Compound 71, N-[1-[(2,6-dimethylphenyl)-methyl]-3(R)-piperidinyl]-1,4,6,7-tetrahydro-3-(4-pyridinyl)-5H-pyrazolo[4,3-c]pyridine-5-carboxamide]: the Kd on ERK protein is 0.15 nM. On Mouse ERK2 protein, this compound registered an IC50 of 2.07 nM.

As for `Cc1cc(-c2n[nH]c3c2CN(C(=O)NC2CCCN(Cc4c(C)cccc4C)C2)CC3)ccn1` (stereo not shown) [Compound 84, N-[1-[(2,6-dimethylphenyl)-methyl]-3-piperidinyl]-1,4,6,7-tetrahydro-3-(2-methyl-4-pyridinyl)-5H-pyrazolo[4,3-c]pyridine-5-carboxamide], on ERK protein, the dissociation constant Kd was 0.13 nM. On Mouse ERK2 protein, this compound displayed a half-inhibitory concentration (IC50) of 6.3 nM.

As to `Cc1cc(-c2n[nH]c3c2CN(C(=O)N[C@@H]2CCCN(Cc4cccc5ccccc45)C2)CC3)ccn1` [Compound 100, 1,4,6,7-tetrahydro-3-(2-methyl-4-pyridinyl)-N-[1-(1-naphthalenylmethyl)-3(R)-piperidinyl]-5H-pyrazolo[4,3-c]pyridine-5-carboxamide], at ERK protein, the dissociation constant Kd is 0.4 nM. For the same compound, the IC50 against Mouse ERK2 protein was determined as 3.7 nM.

Consider `O=C(N[C@@H]1CCCN(Cc2csc3ccccc23)C1)N1CCc2[nH]nc(-c3ccc4nccn4c3)c2C1` [Compound 109, N-[1-(benzo[b]thien-3-ylmethyl)-3(R)-piperidinyl]-1,4,6,7-tetrahydro-3-(imidazo[1,2-a]pyridin-6-yl)-5H-pyrazolo[4,3-c]pyridine-5-carboxamide], for which the dissociation constant (Kd) on ERK protein turned out to be 0.14 nM. Also, the IC50 against Mouse ERK2 protein turned out to be 3 nM.

As for `Cc1cccc(C)c1CN1CCC[C@@H](NC(=O)N2CCc3[nH]nc(-c4ccc5nccn5c4)c3C2)C1` [Compound 110], the equilibrium dissociation constant (Kd) at ERK protein amounted to 0.03 nM. This compound also had an IC50 at Mouse ERK2 protein of 5.3 nM.

`O=C(N[C@@H]1CCCN(Cc2cccc3ccccc23)C1)N1CCc2[nH]nc(-c3ccc4nccn4c3)c2C1` [Compound 112, 1,4,6,7-tetrahydro-3-imidazo[1,2-a]pyridin-6-yl-N-[1-(1-naphthalenylmethyl)-3(R)-piperidinyl]-5H-pyrazolo[4,3-c]pyridine-5-carboxamide]: at ERK protein, the Kd came out at 0.12 nM. This compound also gave an IC50 at Mouse ERK2 protein of 3.1 nM.

As to `COc1cccc(F)c1CN1CCC[C@@H](NC(=O)N2CCc3[nH]nc(-c4ccc5nccn5c4)c3C2)C1` [Compound 113, N-[1-[(2-fluoro-6-methoxyphenyl)methyl]-3(R)-piperidinyl]-1,4,6,7-tetrahydro-3-(imidazo[1,2-a]pyridin-6-yl)-5H-pyrazolo[4,3-c]pyridine-5-carboxamide], the dissociation constant (Kd) at ERK protein worked out at 0.03 nM. Moreover, half-maximal inhibition against Mouse ERK2 protein (IC50) was put at 4.2 nM.

`COc1cccc(F)c1CN1CC(NC(=O)N2CCc3[nH]nc(-c4ccnc(C)c4)c3C2)CC(C(F)(F)F)C1` (stereo not shown) [Compound 123, N-[1-[(2-fluoro-6-methoxyphenyl)methyl]-5-(trifluoromethyl)-3-piperidinyl]-1,4,6,7-tetrahydro-3-(2-methyl-4-pyridinyl)-5H-pyrazolo[4,3-c]pyridine-5-carboxamide]: on ERK protein, the dissociation constant Kd was determined as 0.06 nM. This compound also returned an IC50 against Mouse ERK2 protein of 4.3 nM.

The values are drawn from patent US9242981B2, “Fused pyrazole derivatives as novel ERK inhibitors” (Merck Sharp & Dohme Corp., priority 2010, dated 2016).
